# Test results from paper PMC9054876 (Cancer Chemotherapy and Pharmacology, 2022).
# Tests used:
# [1] = cited from earlier work
# [2] = parameters: method as in PMID 32562690; details: cited from earlier work
# [3] = Bootstrap-derived secondary PK parameters, forest plots and model-based simulation
# Description: (§1) The association or lack of association between the observed covariates and model-derived secondary PK parameters [e.g., area under the concentration–time curve over the dosing interval at steady state (AUCτ,ss)] for patients with cancer was illustrated using bootstrap analysis-based forest plots (see ESM 1 for method details). In the bootstrap analysis, N = 100 new data sets were generated with replacement from the analysis data set. The sampling was stratified by study, and the final models were fit to each of the resampled data sets. […] For categorical covariates, the mean and its 5th and 95th percentiles of PK parameters for each category were computed. For continuous covariates, the mean and its 5th and 95th percentiles of PK parameters, corresponding to the 0–5th and 95–100th percentile of the covariate, were computed. The impact of the covariates in the forest plots were presented on a relative scale. The reference value was the arithmetic mean of the corresponding PK parameter.
# (§2) The derivation of these secondary PK parameters is based on a bootstrap analysis (see following). Only participants with at least one observation above the lower limit of quantitation in the analysis data set were included in the derivation of the secondary parameters.
# (§3) In the bootstrap analysis, N = 100 new data sets (with the participants in the analysis data sets with at least one observation with the same number of participants as in the analysis data sets) were drawn with replacement from the analysis data sets. The sampling was stratified by study. The final models were fit to each of the resampled data sets.
# (§4) For each of the N = 100 population parameter vectors, the n observed covariate vectors were used to predict the corresponding n primary and secondary parameters, where n = the unique combination of ID and the time-varying variables formulation, μ-opioids and dose (while National Cancer Institute Organ Dysfunction Group (NCI-ODG) class was handled as a time-varying covariate in the stepwise covariate method (SCM), its baseline value was used in the derivation of the forest plots since NCI-ODG class is derived from total bilirubin, alanine aminotransferase and aspartate aminotransferase, which were also assumed to be time-constant in the forest plot).
# (§5) Descriptive statistics (mean, standard deviation and the 5th and 95th percentiles) were calculated for the n secondary parameters. These summary statistics are the bootstrap estimates of the typical individual value, standard error, and 90% confidence interval of the secondary parameters.
# [4] = parameters: method as in manuscript in preparation; details: 500 mg single dose TF2, non-compartmental analysis; ref manuscript in preparation; cited from earlier work
# clinical [5] = details: for CLpar: typical individual, 500 mg
# Description: This step included food status, formulation, and oral dose level.
# In the second step, the remaining covariates were further evaluated, including demographics (age, body weight, race, and sex), patient characteristics (disease status, i.e., patient or healthy participant, tumor type, National Cancer Institute Organ Dysfunction Working Group [NCI-ODWG] classification of liver impairment, and baseline tumor burden), laboratory values (serum albumin, total bilirubin, alkaline phosphatase, international normalized ratio, and total protein), and co-medications (opioid analgesics and gefitinib).
# SCM was applied in the structural covariate model building step, followed by an adaptive scope reduction (ASR) SCM in the following covariate searching step to reduce run times. For the SCM procedures, the forward selection p value was set to 0.01, and the backward elimination p value to 0.001. The ASR threshold p value was set to the same as the forward p value of 0.01.
# Continuous covariate relationships were coded as power models (Formula 1), and categorical covariates were coded as a fractional difference to the most common category (Formula 2). An alternative ‘hockey-stick’ parameterization (Formula 3) was tested for dose as continuous covariate on bioavailability of the parent drug (Par).1 ParCovm=Cov/Covref^θm 2 ParCovm=1ifCov=Covref1+θmifCov≠Covref 3 ParCovm=1+θm1·Cov-CovrefifCov≤Covref1+θm2·Cov-CovrefifCov>Covref
# Model selection and qualification was based on the changes in the objective function value (OFV) provided by NONMEM and the visual inspection of graphical diagnostics, including goodness-of-fit plots and visual predictive checks (VPCs).
# The population PK analyses were performed using NONMEM version 7.3.0. Data management and further processing of NONMEM output were performed using R version 3.3.3. VPCs and covariate model building were run on PsN version 4.4.8.
# The IIV terms are included on CLpar, first-order absorption rate constant (ka), zero-order absorption duration (D1), and bioavailability of parent drug (Fpar).
# [6] = high-fat meal, healthy participants; cited from earlier work
# [7] = cited from earlier work; remark: listed apart in the source
# clinical [8] = details: human, in vivo, po
# Description: as §1, §2, §3, §4, §5
# [9] = oral, cited from earlier work
# [10] = bootstrap predicted, cancer patients
# [11] = bootstrap predicted, cancer patients, 250 mg/day
# [12] = CF1 vs typical participant taking TF2 with a non-high-fat meal
# [13] = fasting vs typical participant taking TF2 with a non-high-fat meal
# [14] = final model, reference patient, multiplied by 0.9
# [15] = fractional difference to reference category
structure (smiles),measurement,setting,value
"COc1cc2ncnc(Nc3ccc(F)c(Cl)c3)c2cc1OCCCN1CCOCC1 [gefitinib, reference compound]",effect of co-administration of tepotinib with gefitinib on exposure,[1],no effect
CN1CCC(COc2cnc(-c3cccc(Cn4nc(-c5cccc(C#N)c5)ccc4=O)c3)nc2)CC1 [Tepotinib],solubility,[2],low-solubility
same,effect of co-administration of tepotinib with gefitinib on exposure,[1],no effect
same,"CLpar, mean","[3]; bootstrap predicted typical individual, cancer patients, multiplied by 0.9",19.3 L/h
same,"Fpar actual doses, mean",[3]; [10],1.12
same,"Tss (time to steady-state), mean",[3]; [10],128.3 h
same,"t1/2eff (effective half-life), mean",[3]; [10],32.1 h
same,"Fpar 250 mg, mean","[3]; bootstrap predicted, cancer patients, 250 mg",1.04
same,"C max, ss 250 mg, mean",[3]; [11],683 ng/mL
same,"Ctrough,ss 250 mg, mean",[3]; [11],523 ng/mL
same,"Fpar 500 mg, mean","[3]; bootstrap predicted, cancer patients, 500 mg",0.94
same,"Ctrough,ss 500 mg, mean","[3]; bootstrap predicted, cancer patients, 500 mg/day",952 ng/mL
same,"Vss, mean","[3]; bootstrap predicted, cancer patients, multiplied by 0.9","2,091 L"
same,"AUCτ,ss higher in moderate renal impairment","[3]; eGFR 39.4-59 vs mean observed eGFR 99.8 mL/min/1.73 m^2, forest plot",2%
same,effect of covariates on tepotinib AUC,"[3]; race, hepatic impairment, renal impairment, age, sex, body weight, opioid analgesics or gefitinib, 90% CIs within 80–125%",no or marginal effects
same,total plasma AUC lower in moderate hepatic impairment than healthy participants,[4],13%
same,CF1 covariate on ka,clinical [5]; CF1 vs TF2,–0.442
same,reduction of Fpar,clinical [5]; [12],65.6%
same,reduction of ka,clinical [5]; [12],44.2%
same,TF1* covariate on ka,clinical [5]; TF1* (finely micronized) vs TF2,0.674
same,TF1 covariate on ka,clinical [5]; TF1 vs TF2,0.305
same,TF3 covariate on Fpar,clinical [5]; TF3 vs TF2,0.154
same,CF1 covariate on Fpar,clinical [5]; capsule formulation 1 (non-micronized) vs TF2,–0.656
same,influence of gefitinib co-administration on tepotinib PK,clinical [5]; covariate analysis,No statistically significant influence
same,reduction of Fpar,clinical [5]; [13],20.9%
same,reduction of ka,clinical [5]; [13],56.1%
same,DOSE covariate on Fpar,clinical [5]; final model,–0.0412 /100 mg
same,D1 (zero-order absorption duration),"clinical [5]; final model, reference patient",4.09 h
same,CLpar/F (apparent clearance),"clinical [5]; final model, reference patient, 500 mg TF2, fed non-high-fat meal, multiplied by 0.9 for salt to base",20.4 L/h
same,ka (first-order absorption rate constant),"clinical [5]; final model, reference patient, TF2, fed non-high-fat meal",0.278 h⁻¹
same,Qpar/F,clinical [5]; [14],1.32 L/h
same,"Vp,par/F",clinical [5]; [14],1180 L
same,"Vc,par/F","clinical [5]; final model, reference patient, multiplied by 0.9 for salt to base",1020 L
same,Colorectal cancer covariate on CLpar/F,clinical [5]; fractional difference,–0.281
same,Hepatocellular carcinoma covariate on CLpar/F,clinical [5]; fractional difference,0.130
same,NCI-ODG class > 0 covariate on Fpar,clinical [5]; fractional difference,–0.0729
same,"Non-small cell lung cancer covariate on Vc,par/F",clinical [5]; fractional difference,–0.232
same,"Patient/participant covariate on Vp,par/F",clinical [5]; fractional difference,–0.810
same,Study MS200095-0028 covariate on CLpar/F,clinical [5]; fractional difference,–0.115
same,μ-Opioids covariate on CLpar/F,clinical [5]; fractional difference,–0.167
same,Fasting state covariate on D1,clinical [5]; [15],–0.370
same,Fasting state covariate on Fpar,clinical [5]; [15],–0.209
same,Fasting state covariate on ka,clinical [5]; [15],–0.561
same,High-fat meal covariate on Fpar,clinical [5]; [15],0.320
same,half-life,"clinical [5]; human, in vivo",~32 h
same,exposure increase between 500 and 1400 mg,"clinical [5]; mostly CF2, Study 001",doubling
same,reduction of bioavailability by liver dysfunction (NCI-ODWG),clinical [5]; oral administration,7.29%
same,"Age covariate on Vc,par/F",clinical [5]; power model,0.219
same,Body weight at baseline covariate on Fpar,clinical [5]; power model,–0.475
same,INR at baseline covariate on Qpar/F,clinical [5]; power model,3.81
same,Serum albumin at baseline covariate on Qpar/F,clinical [5]; power model,4.14
same,eGFR at baseline covariate on CLpar/F,clinical [5]; power model,0.199
same,time dependence of PK,clinical [5]; single dose vs steady state,time-independent
same,CLpar,clinical [5]; eGFR 30 mL/min/1.73 m^2,16.2 L/h
same,CLpar,clinical [5]; eGFR 60 mL/min/1.73 m^2,18.6 L/h
same,CLpar,clinical [5]; eGFR 80 mL/min/1.73 m^2,19.7 L/h
same,CLpar,clinical [5]; eGFR 110 mL/min/1.73 m^2,20.9 L/h
same,dose proportionality of PK,clinical [5]; up to the therapeutic dose of 500 mg,approximately dose-proportional
same,increase in tepotinib exposure in the presence of food,[6],two-fold
same,share of administered dose of any single metabolic pathway,[7]; based on in vitro studies and human mass balance data,≤ 25%
same,absolute bioavailability,[7],72%
same,contribution to total circulating radioactivity,[7],55%
same,total radiolabeled material excreted via feces,[7]; mass balance study,77.9%
same,urinary excretion recovery,[7]; mass balance study,13.6%
same,AUC,clinical [8]; 250 mg/day,12300 ng·h/mL
same,half-life,clinical [8]; 500 mg,102 h
same,AUC,clinical [8]; 500 mg/day,22300 ng·h/mL
same,Cmax,clinical [8]; 500 mg/day,1240 ng/mL
same,time to maximum concentration (Tmax),"[9]; steady state, fed conditions",approximately 8 h
same,terminal elimination half-life,[9],approximately 32 h
